Experimental data reported in ChEMBL document CHEMBL3885861, “Open TG-GATES”.

Organism: Rattus norvegicus
Test: Open TG-GATES - Regimen: Single
Format: toxicity, organism-based, Sprague-Dawley
Design: regimen Single, gender Male, age 6 weeks
Conditions: in vivo, po, 300 mg/kg, route gavage, dose level Middle; for APTT / Bas / Eos / Fbg / Hb / Ht / Lym / MCH / MCHC / MCV / Mono / Neu / PT / Plat / RBC / Ret / WBC: tissue Blood; for KIDNEY_L / KIDNEY_R / KIDNEY_TOTAL: tissue Kidney; for LIVER: tissue Liver; for A/G / ALP / ALT / AST / BUN / CRE / Ca / Cl / DBIL / GLC / IP / K / LDH / Na / PL / RALB / TBIL / TC / TG / TP / gamma-GTP: tissue Plasma

With `CNC(=C[N+](=O)[O-])NCCSCc1ccc(CN(C)C)o1` [RANITIDINE] the TERMINAL_BW (3 h) was 216.6 g, the APTT (3 h) was 21.3 s and the Bas (3 h) was 0%. For the same compound, the Eos (3 h) was 1.2%, the Fbg (3 h) was 224 mg/dL and the Hb (3 h) was 13.1 g/dL. It also gave a Ht (3 h) of 38.4%, a Lym (3 h) of 75.2% and an MCH (3 h) of 21.7 pg. The MCHC (3 h) was 34.2%, the MCV (3 h) was 63.4 fL and the Mono (3 h) was 2.4%. The Neu (3 h) was 18.8%, the PT (3 h) was 12.5 s and the Plat (3 h) was 125.4 x10_4/uL. The RBC (3 h) was 606 x10_4/ul, the Ret (3 h) was 6.6% and the WBC (3 h) was 93.9 x10_2/uL. It also gave a KIDNEY_L (3 h) of 1 g, a KIDNEY_R (3 h) of 1 g and a KIDNEY_TOTAL (3 h) of 2 g. It also gave an LIVER (3 h) of 9.9 g, an A/G (3 h) of 1.7 and an ALP (3 h) of 1000.2 IU/L. It also gave an ALT (3 h) of 34.4 IU/L, an AST (3 h) of 63.8 IU/L and a BUN (3 h) of 10.2 mg/dL. For the same compound, the CRE (3 h) was 0.4 mg/dL, the Ca (3 h) was 10.7 mg/dL and the Cl (3 h) was 103.8 meq/L. For the same compound, the DBIL (3 h) was 0.07 mg/dL, the GLC (3 h) was 195.6 mg/dL and the IP (3 h) was 8.4 mg/dL. It also gave a K (3 h) of 3.8 meq/L, an LDH (3 h) of 141.6 IU/L and a Na (3 h) of 141.6 meq/L. The PL (3 h) was 141.2 mg/dL, the RALB (3 h) was 3.4 g/dL and the TBIL (3 h) was 0.1 mg/dL. For the same compound, the TC (3 h) was 74.2 mg/dL, the TG (3 h) was 48 mg/dL and the TP (3 h) was 5.5 g/dL. For the same compound, the gamma-GTP (3 h) was 0.8 IU/L, the TERMINAL_BW (6 h) was 214.7 g and the APTT (6 h) was 18.8 s. It also gave a Bas (6 h) of 0%, an Eos (6 h) of 1% and a Fbg (6 h) of 220.8 mg/dL. It also gave a Hb (6 h) of 13.1 g/dL, a Ht (6 h) of 37.8% and a Lym (6 h) of 72.6%. For the same compound, the MCH (6 h) was 21.6 pg, the MCHC (6 h) was 34.7% and the MCV (6 h) was 62.4 fL. For the same compound, the Mono (6 h) was 2.4%, the Neu (6 h) was 19.8% and the PT (6 h) was 12.6 s. For the same compound, the Plat (6 h) was 119.8 x10_4/uL, the RBC (6 h) was 605 x10_4/ul and the Ret (6 h) was 6.9%. The WBC (6 h) was 82.1 x10_2/uL, the KIDNEY_L (6 h) was 1 g and the KIDNEY_R (6 h) was 1 g. It also gave a KIDNEY_TOTAL (6 h) of 1.9 g, an LIVER (6 h) of 9.2 g and an A/G (6 h) of 1.6. For the same compound, the ALP (6 h) was 918.8 IU/L, the ALT (6 h) was 36.6 IU/L and the AST (6 h) was 69.6 IU/L. For the same compound, the BUN (6 h) was 8.4 mg/dL, the CRE (6 h) was 0.4 mg/dL and the Ca (6 h) was 10.4 mg/dL. For the same compound, the Cl (6 h) was 103.6 meq/L, the DBIL (6 h) was 0.06 mg/dL and the GLC (6 h) was 193.4 mg/dL. It also gave an IP (6 h) of 8.5 mg/dL, a K (6 h) of 3.8 meq/L and an LDH (6 h) of 111.4 IU/L. It also gave a Na (6 h) of 140.4 meq/L, a PL (6 h) of 129.2 mg/dL and an RALB (6 h) of 3.3 g/dL. The TBIL (6 h) was 0.1 mg/dL, the TC (6 h) was 69.2 mg/dL and the TG (6 h) was 43.2 mg/dL. For the same compound, the TP (6 h) was 5.4 g/dL, the gamma-GTP (6 h) was 1.4 IU/L and the TERMINAL_BW (9 h) was 211.5 g. It also gave an APTT (9 h) of 19.5 s, a Bas (9 h) of 0% and an Eos (9 h) of 1%. The Fbg (9 h) was 241 mg/dL, the Hb (9 h) was 13.3 g/dL and the Ht (9 h) was 38.2%. The Lym (9 h) was 67.8%, the MCH (9 h) was 21.6 pg and the MCHC (9 h) was 34.7%. It also gave an MCV (9 h) of 62.3 fL, a Mono (9 h) of 2.6% and a Neu (9 h) of 26%. For the same compound, the PT (9 h) was 12.7 s, the Plat (9 h) was 116.8 x10_4/uL and the RBC (9 h) was 614.4 x10_4/ul. For the same compound, the Ret (9 h) was 7.2%, the WBC (9 h) was 76 x10_2/uL and the KIDNEY_L (9 h) was 1 g. It also gave a KIDNEY_R (9 h) of 1 g, a KIDNEY_TOTAL (9 h) of 1.9 g and an LIVER (9 h) of 9.2 g. The A/G (9 h) was 1.6, the ALP (9 h) was 741.8 IU/L and the ALT (9 h) was 32 IU/L. For the same compound, the AST (9 h) was 61 IU/L, the BUN (9 h) was 9.8 mg/dL and the CRE (9 h) was 0.4 mg/dL. It also gave a Ca (9 h) of 10.5 mg/dL, a Cl (9 h) of 103.8 meq/L and a DBIL (9 h) of 0.074 mg/dL. It also gave a GLC (9 h) of 204.6 mg/dL, an IP (9 h) of 8.4 mg/dL and a K (9 h) of 3.6 meq/L. For the same compound, the LDH (9 h) was 120.6 IU/L, the Na (9 h) was 141.6 meq/L and the PL (9 h) was 143.8 mg/dL. The RALB (9 h) was 3.4 g/dL, the TBIL (9 h) was 0.1 mg/dL and the TC (9 h) was 76.4 mg/dL. It also gave a TG (9 h) of 46 mg/dL, a TP (9 h) of 5.6 g/dL and a gamma-GTP (9 h) of 1.4 IU/L. For the same compound, the TERMINAL_BW (24 h) was 230.2 g, the APTT (24 h) was 23.9 s and the Bas (24 h) was 0%. It also gave an Eos (24 h) of 1%, a Fbg (24 h) of 225.4 mg/dL and a Hb (24 h) of 13.6 g/dL. It also gave a Ht (24 h) of 38.7%, a Lym (24 h) of 80.6% and an MCH (24 h) of 22.5 pg. For the same compound, the MCHC (24 h) was 35%, the MCV (24 h) was 64.2 fL and the Mono (24 h) was 2.4%. It also gave a Neu (24 h) of 14%, a PT (24 h) of 12.3 s and a Plat (24 h) of 125.9 x10_4/uL. For the same compound, the RBC (24 h) was 603.2 x10_4/ul, the Ret (24 h) was 6.3% and the WBC (24 h) was 104.2 x10_2/uL. For the same compound, the KIDNEY_L (24 h) was 1 g, the KIDNEY_R (24 h) was 1 g and the KIDNEY_TOTAL (24 h) was 2 g. The LIVER (24 h) was 11.2 g, the A/G (24 h) was 1.7 and the ALP (24 h) was 1036.4 IU/L. The ALT (24 h) was 33.4 IU/L, the AST (24 h) was 63.2 IU/L and the BUN (24 h) was 15.8 mg/dL. For the same compound, the CRE (24 h) was 0.4 mg/dL, the Ca (24 h) was 10.7 mg/dL and the Cl (24 h) was 102.2 meq/L. The DBIL (24 h) was 0.086 mg/dL, the GLC (24 h) was 196.6 mg/dL and the IP (24 h) was 7.6 mg/dL. The K (24 h) was 4 meq/L, the LDH (24 h) was 132.6 IU/L and the Na (24 h) was 140 meq/L. For the same compound, the PL (24 h) was 152.8 mg/dL, the RALB (24 h) was 3.4 g/dL and the TBIL (24 h) was 0.1 mg/dL. The TC (24 h) was 79.2 mg/dL, the TG (24 h) was 78.6 mg/dL and the TP (24 h) was 5.3 g/dL. The gamma-GTP (24 h) was 1 IU/L.
